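Tested at 5 concentrations; 48 h exposure; 96-well plates; endpoints linearly interpolated, else capped at highest concentration. At the GI50, growth is halved.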 Activity calls are given as the source filed them. Rule as the data show it: active = GI50 up to about 1.1 µM and inactive = higher.
Assays:
Assay in all cases: NCI anticancer screen, dose series, 48 h
K562 = tested on: K562
SK-MEL-2 = tested on: SK-MEL-2
OVCAR-8 = tested on: OVCAR-8
HCC 2998 = tested on: HCC 2998
IGROV-1 = tested on: IGROV-1
Malme-3M = tested on: Malme-3M
SNB-19 = tested on: SNB-19
786-0 = tested on: 786-0
MDA-MB-231 = tested on: MDA-MB-231
HOP-62 = tested on: HOP-62
COLO 205 = tested on: COLO 205
TK-10 = tested on: TK-10
HCT-15 = tested on: HCT-15
OVCAR-4 = tested on: OVCAR-4
KM12 = tested on: KM12
U-251 = tested on: U-251
CAKI-1 = tested on: CAKI-1
NCI-H460 = tested on: NCI-H460
SF-539 = tested on: SF-539
OVCAR-3 = tested on: OVCAR-3

Compound	GI50 (K562)	GI50 (SK-MEL-2)	GI50 (OVCAR-8)	GI50 (HCC 2998)	GI50 (IGROV-1)	GI50 (Malme-3M)	GI50 (SNB-19)	GI50 (786-0)	GI50 (MDA-MB-231)	GI50 (HOP-62)	GI50 (COLO 205)	GI50 (TK-10)	GI50 (HCT-15) [µM]	GI50 (OVCAR-4)	GI50 (KM12)	GI50 (U-251)	GI50 (CAKI-1)	GI50 (NCI-H460)	GI50 (SF-539)	GI50 (OVCAR-3)
O=C1C(Br)=C(Br)C(=O)c2ccc(=O)ccc21	30.7 µM (inactive)	48.9 µM (inactive)	22.3 µM (inactive)	> 85.1 µM (inactive)	> 52.2 µM (inactive)	19.9 µM (inactive)	> 100 µM (inactive)	18.3 µM (inactive)	19.9 µM (inactive)	60.1 µM (inactive)	13.3 µM (inactive)	18.7 µM (inactive)	18.7	17.5 µM (inactive)	46.8 µM (inactive)	38.3 µM (inactive)	28.3 µM (inactive)	38.8 µM (inactive)	24.7 µM (inactive)	20.8 µM (inactive)
O=C(/C=C/c1ccc(OCCSCCCCCCCCCCSCCOc2ccc(/C=C/C(=O)c3ccc(Cl)cc3)cc2)cc1)c1ccc(Cl)cc1	> 100 µM (inactive)	61.8 µM (inactive)	> 100 µM (inactive)	> 100 µM (inactive)	> 100 µM (inactive)	> 100 µM (inactive)	> 74.3 µM (inactive)	75.3 µM (inactive)	> 100 µM (inactive)	51.2 µM (inactive)	> 100 µM (inactive)	> 100 µM (inactive)	> 100	> 100 µM (inactive)	> 100 µM (inactive)	65.8 µM (inactive)	> 83.2 µM (inactive)	> 100 µM (inactive)	45.6 µM (inactive)	> 100 µM (inactive)
COC1(OC)CC(CO)(COc2cc(Cl)nc(N)n2)C1	> 100 µM (inactive)	> 100 µM (inactive)	> 100 µM (inactive)	> 100 µM (inactive)	> 100 µM (inactive)	> 100 µM (inactive)	> 100 µM (inactive)	> 100 µM (inactive)	> 100 µM (inactive)	> 100 µM (inactive)	> 100 µM (inactive)	> 100 µM (inactive)	> 100	> 100 µM (inactive)	> 100 µM (inactive)	> 100 µM (inactive)	> 100 µM (inactive)	> 100 µM (inactive)	> 100 µM (inactive)	> 100 µM (inactive)
O=C(O)c1nc2cc(Cl)ccc2[nH]c1=O	> 100 µM (inactive)	> 100 µM (inactive)	> 100 µM (inactive)	> 100 µM (inactive)	> 100 µM (inactive)	> 100 µM (inactive)	> 100 µM (inactive)	> 100 µM (inactive)	> 100 µM (inactive)	> 100 µM (inactive)	> 100 µM (inactive)	> 100 µM (inactive)	> 100	> 100 µM (inactive)	> 100 µM (inactive)	> 100 µM (inactive)	> 100 µM (inactive)	> 100 µM (inactive)	> 100 µM (inactive)	> 100 µM (inactive)
Cc1ccc(S(=O)(=O)N(CC(O)c2ccccc2)c2ccccc2F)cc1 (stereo not given)	17 µM (inactive)	17.9 µM (inactive)	19.3 µM (inactive)	24.2 µM (inactive)	21.7 µM (inactive)	16.4 µM (inactive)	18 µM (inactive)	17.6 µM (inactive)	18.2 µM (inactive)	16.8 µM (inactive)	15.4 µM (inactive)	19.7 µM (inactive)	17.7	13.5 µM (inactive)	16.8 µM (inactive)	19.5 µM (inactive)	15.7 µM (inactive)	17.4 µM (inactive)	16.6 µM (inactive)	11.3 µM (inactive)
